How the values were obtained:
[1] = same conditions; Abergel et al., Inorganic chemistry 2009; cited from earlier work
[2] = Abergel et al., Inorganic chemistry 2009; given for comparison; cited from earlier work
[3] = Deblonde et al. 2013; Sturzbecher-Hoehne et al. 2015; cited from earlier work
[4] = Zr(IV) complex formation constants by spectrophotometric competition titration in the presence of DTPA; assay type: binding
Method: (§1) Metal, Chelator Solutions. The trivalent lanthanide Ln(III) working stock solutions were prepared in standardized 0.1 M HCl. A Zr(IV) stock solution was prepared by dissolving ZrCl4 in 3.0 M H2SO4, to prevent hydrolysis. The metal salt ZrCl4 was handled and stored in a glovebox kept under inert atmosphere. The Zr(IV) stock solution was standardized against EDTA, with xylene orange as the indicator (Welcher, F. J. The analytical uses of ethylenediamine tetraacetic acid; 1958). A Th(IV) stock solution was prepared in 0.1 M H2SO4. Stock solutions (4 mM) of Ent, and 3,4,3-LI(CAM) were prepared by direct dissolution of a weighed portion of chelator in DMSO and aliquots were removed prior to each set of experiments.
(§2) Solution Thermodynamics. All titrant solutions were degassed by boiling for 1 h while being purged under Ar. Carbonate-free 0.1 M KOH was prepared from concentrate (J.T Baker Dilut-It) and was standardized by titrating against 0.1 M potassium hydrogen phthalate (99.95%, Sigma Aldrich). Solutions of 0.1 M HCl were similarly prepared and were standardized by titrating against TRIS (99.9%, J.T. Baker). The glass electrode (Metrohm-Micro Combi-response to [H+]) used for the pH measurements was calibrated at 25.0° C. and at an ionic strength of 0.1 M (KCl) before each potentiometric or spectrophotometric titration. The calibration data were analyzed using the program GLEE (Gans & O'Sullivan, Talanta, 2000, 51 (1): 33-37) to refine for the E° and slope. All thermodynamic measurements were conducted at 25.0° C., in 0.1 M KCl supporting electrolyte under positive Ar gas pressure. The automated titration system was controlled by an 867 pH Module (Metrohm). […]
(§3) Incremental Spectrophotometric Titrations. […] For the 3,4,3-LI(CAM) protonation (and Eu(III)-3,4,3-LI(CAM) complexes), titrations were performed with an initial concentration of 50 μM of 3,4,3-LI(CAM) (and 50 μM of Eu(III)) resulting in absorbance values included between 0 and 1.0 throughout the titration. […]

[5] = Th(IV) complex formation constants by spectrophotometric competition titration in the presence of DTPA; assay type: binding
Method: as §1, §2, §3

[6] = Eu(III) complex formation constants by incremental spectrophotometric titration; assay type: binding
Method: as §1, §2, §3

Compound	pH at which Eu(III) species already appear [1]	overall acidity ΣpKa5-8 [2]	pH at which 4+ metal complexes are formed [3]	log β110, stability constant of Zr(IV) complex ([4]; I=0.1 M (KCl), T=25° C.)	predominant Zr(IV) species at physiological pH ([4]; pH 7.4, speciation diagram, 1 equivalent of Zr(IV))	pH at which Zr(IV) complexes start forming ([4]; speciation diagram, 1 equivalent of Zr(IV), [Zr]=[CAM]=10 μM, T=25° C., I=0.1 M, Hyss)	log β110, stability constant of Th(IV) complex ([5]; I=0.1 M (KCl), T=25° C.)	predominant Th(IV) species at physiological pH ([5]; pH 7.4, speciation diagram, 1 equivalent of Th(IV))	pH at which Th(IV) complexes start forming ([5]; speciation diagram, 1 equivalent of Th(IV), [Th]=[CAM]=10 μM, T=25° C., I=0.1 M, Hyss)	log β110, stability constant of Eu(III) complex ([6]; I=0.1 M (KCl), T=25° C.)	only Eu(III) species present at pH 7.4 ([6]; pH 7.4, speciation diagram, 1 equivalent of Eu(III))	pH at which Eu(III) complexation starts ([6]; speciation diagram, 1 equivalent of Eu(III), [Eu]=[CAM]=10 μM, T=25° C., I=0.1 M, Hyss)
O=C(NCCCN(CCCCN(CCCNC(=O)c1cccc(=O)n1O)C(=O)c1cccc(=O)n1O)C(=O)c1cccc(=O)n1O)c1cccc(=O)n1O [3,4,3-LI(1,2-HOPO)]	1	21.2	< 0									
O=C(NCCCN(CCCCN(CCCNC(=O)c1cccc(O)c1O)C(=O)c1cccc(O)c1O)C(=O)c1cccc(O)c1O)c1cccc(O)c1O [3,4,3-LI(CAM)]				57.3	[MIVLH]^3− and [MIVL]^4−	~3	47.7	[MIVLH]^3− and [MIVL]^4−	~3	29.7	[Eu^IIILH]^4−	5

— US12479792B2, “Compositions of chelating molecules” (The Regents of the University of California, priority 2016, dated 2025)
